Results taken from US9856232B1, “Dihydropyrimidinone derivatives” (KING SAUD UNIVERSITY, priority 2017, dated 2018).
Marks after values point to notes of the source that are not given here.

Columns and labels:
[1] = system: gastric secretion in pylorus-ligated Shay rats; assay: Pylorus-ligated rats: gastric secretion, acidity and lesion index; assay type: in vivo, Albino Wistar rats; design: Ulcer Index, pylorus-ligated Shay rats: scale not given here; details: i.p., 6 h after pylorus ligation, mean ± SE
Experimental: (§1) Albino Wistar rats of either sex, approximately the same age, weighing 150 to 200 g and fed on a diet of standard chow were used in this study. They were randomly divided into experimental groups of six rats each. Compounds (N-1 to N-18) 12.5, 25, and 50 mg/kg were given orally in the anti-ulcer studies and intraperitoneally for gastric secretion evaluation. The rats were sacrificed, and the stomachs removed and opened along the greater curvature, After washing with saline, the gastric lesions were quantified by a person unaware of the treatments. The animal study protocol was approved by the Research and Ethics Committee of the Experimental Animal Care Society, College of Pharmacy, King Saud University, Riyadh, Saudi Arabia.
Pylorus-ligated rats: Rats were fasted for 36 hours with access to water ad libitum before pylorus ligation under ether anesthesia was carried out. Care was taken not to cause bleeding or to occlude blood vessels. Compounds (N-3, N-8, N-11, and N-15) were administered intraperitoneally immediately after pylorus ligation. The rats were sacrificed at 6 hours after pylorus ligation. The stomachs were removed, the contents were collected, volumes measured, centrifuged and analyzed for tritratable acidity against […], NaOH at pH 7.0. Table 5 provides the effect of compounds on gastric secretion, acidity, and gastric lesion index in pylorus-ligated Shay rats (mean±SE).

[2] = system: Gastric lesions induced by 80% ethanol; assay: Gastric lesions induced by ethanol (ulcer index by severity scores); assay type: in vivo, Albino Wistar rats; details: Rattus norvegicus, po, vs 80% EtOH group, read-out: Gastric lesions induced by 80% ethanol, % change; for inhibition in vivo at 12.5 mg/kg: compound 12.5 mg/kg; for inhibition in vivo at 25 mg/kg: compound 25 mg/kg; for inhibition in vivo at 50 mg/kg: compound 50 mg/kg
Experimental: as §1
Gastric lesions induced by ethanol: Albino rats of either sex weighing between (150-200 g) are divided into groups. The animals were fasted for 24 hours with free access to water. Animals were given test drugs or standard drug. One hour later 1 mL/200 gm of 80% ethanol is administered orally to each animal. The animals were anaesthetized 1 hour latter with anesthetic ether and stomach was incised along the greater curvature and ulceration was scored. The number of ulcers and the length of each ulcer were measured. Ulcer index was calculated using severity scores. The mucosal damage was examined by means of a magnifying glass. For each stomach the mucosal damage was assessed according to the following scoring system: 0.5 redness; 1.0 spot ulcers; 1.5 hemorrhagic streaks; 2.0 ulcers<3, but≦5; 3.0 ulcers>5. Table 1 provides the effect of compounds on gastric lesions induced by 80% ethanol (mean±SE).

[3] = system: gastric mucosal non-protein sulfhydryls, induced by 80% ethanol; assay: Estimation of non-protein sulfhydryls (NP-SH); assay type: in vivo, Albino Wistar rats; details: stomach tissue, 80% ethanol-treated rats, mean ± SE
Experimental: as §1
Estimation of non-protein sulfhydryls (NP_SH): Gastric mucosal non-protein sulfhydryls were measured according to the method. The glandular part of the stomach was homogenized in ice-cold 0.02 mmol/L ethylenediaminetetraacetic acid (EDTA). Aliquots of 5 mL of the homogenates were mixed in 15 mL test tubes with 4 mL of distilled water and 1 mL of 50% trichloroacetic acid (TCA). The tubes were shaken intermittently for 10 minutes and centrifuged at 3000 r/min. Two milliliters of supernatant were mixed with 4 mL of 0.4 mol/L Tris buffer at pH 8.9. Then 0.1 ML of 5, 5′-dithio-bis (2-nitrobenzoic acid) (DTNB) was added and the sample was shaken. The absorbance was measured within 5 minutes of DTNB addition at 412 nm against a reagent blank.

[4] = system: total protein in stomach tissue, induced by 80% ethanol; assay: Total protein in stomach tissue; assay type: in vivo, Albino Wistar rats; details: mean ± SE
[5] = system: gastric mucosa of rats treated with 80% Ethanol; assay: Histopathological evaluation of gastric tissue; assay type: in vivo, Albino Wistar rats; details: 50 mg/kg; FIG. 15B-15F
Experimental: Histopathological evaluation: Gastric tissue samples were fixed in neutral buffered formalin for 24 hours. Sections of gastric tissue were histopathologically examined to study the ulcerogenic and/or anti-ulcerogenic activity of compounds (N-3, N-8, N-11, and N-15). The tissues were fixed in 10% buffered formalin and processed using a VIP tissue processor. The processed tissues were embedded in paraffin blocks and sections about […] thick were cut using an American optical rotary microtome. These sections were stained with haematoxylin and eosin using routine procedures. The slides were examined microscopically for pathomorphological changes such as congestion, hemorrhage, edema, and erosions using an arbitrary scale for severity assessment of these changes (FIGS. 3-14).

[6] = dose 12.5, 80% ethanol-treated rats
[7] = dose 25, 80% ethanol-treated rats
[8] = dose 50, 80% ethanol-treated rats

SMILES | Titratable Acidity ([1]; 12.5 mg/kg) [mEg/L] | Ulcer Index, pylorus-ligated Shay rats ([1]; 12.5 mg/kg) | Volume of Gastric Content ([1]; 12.5 mg/kg) [mL] | Titratable Acidity ([1]; 25 mg/kg) [mEg/L] | Ulcer Index, pylorus-ligated Shay rats ([1]; 25 mg/kg) | Volume of Gastric Content ([1]; 25 mg/kg) [mL] | Titratable Acidity ([1]; 50 mg/kg) [mEg/L] | Ulcer Index, pylorus-ligated Shay rats ([1]; 50 mg/kg) | Volume of Gastric Content ([1]; 50 mg/kg) [mL] | inhibition in vivo at 12.5 mg/kg [2] [%] | inhibition in vivo at 25 mg/kg [2] [%] | inhibition in vivo at 50 mg/kg [2] [%] | NP-SH ([3]; dose 12.5) | NP-SH ([3]; dose 25) | NP-SH ([3]; dose 50) | Total Protein [4, 6] | Total Protein [4, 7] | Total Protein [4, 8] | Gastric section, effect on gastric mucosa (histology) [5] | melting point [°C]
COc1ccccc1C1NC(=O)NC=C1C(=O)c1ccc(N2CCCCC2)cc1 (centres unmarked) [Compound N-8, 4-(2-Methoxyphenyl)-5-[4-(piperidin-1-yl)benzoyl]-3,4-dihydropyrimidin-2(1H)-one] | 161.11 ± 4.36 | 3.16 ± 0.30 | 10.50 ± 0.34 | 133.33 ± 3.22 | 2.50 ± 0.22 | 9.36 ± 1.22 | 115.00 ± 5.75 | 2.00 ± 0.13 | 6.46 ± 0.16 | 33.3 | 50 | 53.3 | 3.49 ± 0.16^b nmol/g | 3.61 ± 0.12^b nmol/g | 4.61 ± 0.27**^b nmol/g | 45.90 ± 1.14^b g/L | 55.88 ± 1.71*^b g/L | 66.26 ± 1.47 g/L | intact normal mucosa | –
COc1ccc(C2NC(=O)NC=C2C(=O)c2ccc(N3CCCCC3)cc2)c(OC)c1OC (centres unmarked) [Compound N-15, 4-(2,3,4-Trimethoxyphenyl)-5-[4-(piperidin-1-yl)benzoyl]-3,4-dihydropyrimidin-2(1H)-one] | 116.11 ± 2.64 | 1.83 ± 0.304 | 6.68 ± 0.18 | 86.11 ± 3.98 | 1.50 ± 0.22 | 5.50 ± 0.24 | 73.33 ± 2.43 | 1.00 ± 0.36 | 4.76 ± 0.23 | 35.4 | 54.8 | 67.7 | 3.38 ± 0.07^b nmol/g | 4.29 ± 0.24**^b nmol/g | 4.92 ± 0.30***^b nmol/g | 71.45 ± 1.43*^b g/L | 81.43 ± 3.65***^b g/L | 96.60 ± 1.18***^b g/L | intact normal mucosa | –
O=C1NC=C(C(=O)c2ccc(N3CCCCC3)cc2)C(c2ccc([N+](=O)[O-])cc2)N1 (centres unmarked) [Compound N-3, 4-(4-Nitrophenyl)-5-[4-(piperidin-1-yl)benzoyl]-3,4-dihyropyrimidin-2(1H)-one] | 153.88 ± 5.40 | 2.33 ± 0.33 | 9.03 ± 0.24 | 97.77 ± 2.93 | 1.83 ± 0.304 | 6.31 ± 0.25 | 84.84 ± 2.38 | 1.16 ± 0.30 | 4.63 ± 0.22 | 33.3 | 53.3 | 60 | 3.15 ± 0.20^b nmol/g | 4.23 ± 0.23**^b nmol/g | 4.56 ± 0.17***^b nmol/g | 58.68 ± 3.19*^b g/L | 74.65 ± 3.79*^b g/L | 95.80 ± 1.51***^b g/L | intact mucosa with mild ulceration | –
CN(C)c1ccc(C2NC(=O)NC=C2C(=O)c2ccc(N3CCCCC3)cc2)cc1 (centres unmarked) [Compound N-11, 4-(4-Dimethylaminophenyl)-5-[4-(piperidin-1-yl)benzoyl]-3,4-dihydropyrimidin-2(1H)-one] | 160.55 ± 3.48 | 2.83 ± 0.30 | 10.20 ± 0.29 | 141.11 ± 6.30 | 2.50 ± 0.42 | 7.35 ± 0.19 | 116.66 ± 4.63 | 2.33 ± 0.71 | 6.63 ± 0.21 | 22.5 | 48.3 | 61.2 | 2.93 ± 0.11^b nmol/g | 3.40 ± 0.18^b nmol/g | 4.35 ± 0.11***^b nmol/g | 53.89 ± 1.48*^b g/L | 64.27 ± 2.08***^b g/L | 72.25 ± 1.43***^b g/L | intact normal mucosa | 185 to 187
